What follows are compounds tested on SU-DHL-1 cells (assay: Inhibition activity of cell proliferation (CCK-8 assay)). Conditions: Homo sapiens, 72 h exposure.
Format: cell-based
Protocol: SU-DHL-1 cells were seeded in 96-well tissue culture plates. On the next day, cells were exposed to various concentrations of compounds and further cultured for 72 h. Cell proliferation was then determined using Cell Counting Kit-8 [(CCK-8), Dojindo]assay. Briefly, add 10 μL of the CCK-8 solution to each well of the plate. Incubate the plate for 1-4 hours in the incubator. Measure the absorbance at 450 nm using a multi-well spectrophotometer (SpectraMAX 190, Molecular Devices). The inhibition rate (%) was calculated using the following equation: [1−(A450 Compound/A450 Control)]×100%. IC50 values were calculated according to inhibition curve by four-parameter fit.

| IC50 | SMILES |
| --- | --- |
| 38.2 nM | CC(=O)N1CCC(c2c(C)cc(Nc3ncc(Cl)c(Nc4ccccc4S(=O)(=O)C(C)C)n3)c3c2C[C@H](C)O3)CC1 [Example 15, (S)-1-(4-(7-((5-chloro-4-((2-(isopropylsulfonyl)phenyl)amino)pyrimidin-2-yl)amino)-2,5-dimethyl-2,3-dihydrobenzofuran-4-yl)piperidin-1-yl)ethanone] |
| 97.8 nM | CCC(=O)N1CCC(c2c(C)cc(Nc3ncc(Cl)c(Nc4ccccc4S(=O)(=O)C(C)C)n3)c3c2C[C@@H](C)O3)CC1 [Example 49, (R)-1-(4-(7-((5-chloro-4-((2-(isopropylsulfonyl)phenyl)amino)pyrimidin-2-yl)amino)-2,5-dimethyl-2,3-dihydrobenzofuran-4-yl)piperidin-1-yl)propan-1-one] |
| 52.4 nM | Cc1cc(Nc2ncc(Cl)c(Nc3ccccc3S(=O)(=O)C(C)C)n2)c2c(c1C1CCN(C(=O)C3CC3)CC1)C[C@@H](C)O2 [Example 51, (R)-(4-(7-((5-chloro-4-((2-(isopropylsulfonyl)phenyl)amino)pyrimidin-2-yl)amino)-2,5-dimethyl-2,3-dihydrobenzofuran-4-yl)piperidin-1-yl)(cyclopropyl)methanone] |
| < 4.1 nM | Cc1cc(Nc2ncc(Cl)c(Nc3ccccc3S(=O)(=O)C(C)C)n2)c2c(c1C1CCNCC1)CCO2 [Example 13] |
| 114 nM | Cc1cc(Nc2ncc(Cl)c(Nc3ccccc3S(=O)(=O)C(C)C)n2)c2c(c1C(=O)N1CCNCC1)C[C@H](C)O2 [Example 46, (S)-(7-((5-chloro-4-((2-(isopropylsulfonyl)phenyl)amino)pyrimidin-2-yl)amino)-2,5-dimethyl-2,3-dihydrobenzofuran-4-yl)(piperazin-1-yl)methanone] |
| 68.5 nM | Cc1cc(Nc2ncc(Cl)c(Nc3ccccc3S(=O)(=O)C(C)C)n2)c2c(c1C1CCN(S(C)(=O)=O)CC1)C[C@H](C)O2 [Example 17, (S)-5-chloro-N-2-(2,5-dimethyl-4-(1-(methylsulfonyl)piperidin-4-yl)-2,3-dihydrobenzofuran-7-yl)-N-4-(2-(isopropylsulfonyl)phenyl)pyrimidine-2,4-diamine] |
| 13.6 nM | Cc1cc(Nc2ncc(Cl)c(Nc3ccccc3S(=O)(=O)C(C)C)n2)c2c(c1C1CCN(C(=O)[C@H](C)O)CC1)C[C@@H](C)O2 [Example 38, (S)-1-(4-((R)-7-((5-chloro-4-((2-(isopropylsulfonyl)phenyl)amino)pyrimidin-2-yl)amino)-2,5-dimethyl-2,3-dihydrobenzofuran-4-yl)piperidin-1-yl)-2-hydroxypropan-1-one] |
| 10.3 nM | Cc1cc(Nc2ncc(Cl)c(Nc3ccccc3S(=O)(=O)C(C)C)n2)c2c(c1C1CCN(C(=O)[C@@H](C)O)CC1)C[C@@H](C)O2 [Example 39, (R)-1-(4-((R)-7-((5-chloro-4-((2-(isopropylsulfonyl)phenyl)amino)pyrimidin-2-yl)amino)-2,5-dimethyl-2,3-dihydrobenzofuran-4-yl)piperidin-1-yl)-2-hydroxypropan-1-one] |
| 81.2 nM | Cc1cc(Nc2ncc(Cl)c(Nc3ccccc3S(=O)(=O)C(C)C)n2)c2c(c1C1CCN(C(=O)C(C)C)CC1)C[C@@H](C)O2 [Example 50, (R)-1-(4-(7-((5-chloro-4-((2-(isopropylsulfonyl)phenyl)amino)pyrimidin-2-yl)amino)-2,5-dimethyl-2,3-dihydrobenzofuran-4-yl)piperidin-1-yl)-2-methylpropan-1-one] |
| 52.7 nM | COCC1Cc2c(c(Nc3nc(Nc4ccccc4S(=O)(=O)C(C)C)c4c(C)n[nH]c4n3)cc(C)c2C2CCNCC2)O1 (centres unmarked) [Example 8, N-4-(2-(isopropylsulfonyl)phenyl)-N-6-(2-(methoxymethyl)-5-methyl-4-(piperidin-4-yl)-2,3-dihydrobenzofuran-7-yl)-3-methyl-1H-pyrazolo[3,4-d]pyrimidine-4,6-diamine] |
| 13.7 nM | Cc1cc(Nc2ncc(Cl)c(Nc3ccccc3S(=O)(=O)C(C)C)n2)c2c(c1C1CCN(CC(N)=O)CC1)C[C@@H](C)O2 [Example 26, (R)-2-(4-(7-((5-chloro-4-((2-(isopropylsulfonyl)phenyl)amino)pyrimidin-2-yl)amino)-2,5-dimethyl-2,3-dihydrobenzofuran-4-yl)piperidin-1-yl)acetamide] |
| 34.6 nM | Cc1cc(Nc2nc(Nc3ccccc3S(=O)(=O)C(C)C)c3c(C)n[nH]c3n2)c2c(c1C1CCN(C)CC1)C[C@H](C)O2 [Example 6] |
| 19.3 nM | COCCN1CCC(c2c(C)cc(Nc3ncc(Cl)c(Nc4ccccc4S(=O)(=O)C(C)C)n3)c3c2C[C@@H](C)O3)CC1 [Example 32, (R)-5-chloro-N-4-(2-(isopropylsulfonyl)phenyl)-N-2-(4-(1-(2-methoxyethyl)piperidin-4-yl)-2,5-dimethyl-2,3-dihydrobenzofuran-7-yl)pyrimidine-2,4-diamine] |
| 4.9 nM | Cc1cc(Nc2ncc(Cl)c(Nc3ccccc3S(=O)(=O)C(C)C)n2)c2c(c1C1CCN(CC(=O)O)CC1)C[C@H](C)O2 [Example 19, (S)-2-(4-(7-((5-chloro-4-((2-(isopropylsulfonyl)phenyl)amino)pyrimidin-2-yl)amino)-2,5-dimethyl-2,3-dihydrobenzofuran-4-yl)piperidin-1-yl)acetic acid] |
| 64.7 nM | Cc1cc(Nc2ncc(Cl)c(Nc3ccccc3S(=O)(=O)C(C)C)n2)c2c(c1C1CCN(CCS(C)(=O)=O)CC1)C[C@H](C)O2 [Example 29] |
| 264 nM | CNCC(=O)N1CCC(c2c(C)cc(Nc3ncc(Cl)c(Nc4ccccc4S(=O)(=O)C(C)C)n3)c3c2C[C@H](C)O3)CC1 [Example 44, (S)-1-(4-(7-((5-chloro-4-((2-(isopropylsulfonyl)phenyl)amino)pyrimidin-2-yl)amino)-2,5-dimethyl-2,3-dihydrobenzofuran-4-yl)piperidin-1-yl)-2-(methylamino)ethanone] |
| 333 nM | Cc1cc(Nc2ncc(Cl)c(Nc3ccccc3S(=O)(=O)C(C)C)n2)c2c(c1C1CCN(S(=O)(=O)C3CC3)CC1)C[C@@H](C)O2 [Example 54, (R)-5-chloro-N-2-(4-(1-(cyclopropylsulfonyl)piperidin-4-yl)-2,5-dimethyl-2,3-dihdyrobenzofuran-7-yl)-N-4-(2-(isopropylsulfonyl)phenyl)pyrimidine-2,4-diamine] |
| 15.9 nM | Cc1cc(Nc2ncc(Cl)c(Nc3ccccc3S(=O)(=O)C(C)C)n2)c2c(c1C1CCN(S(C)(=O)=O)CC1)C[C@@H](C)O2 [Example 18] |
| 26.2 nM | Cc1cc(Nc2ncc(Cl)c(Nc3ccccc3S(=O)(=O)C(C)C)n2)c2c(c1C1CCN(C[C@H](C)O)CC1)C[C@H](C)O2 [Example 36, (S)-1-(4-((S)-7-((5-chloro-4-((2-(isopropylsulfonyl)phenyl)amino)pyrimidin-2-yl)amino)-2,5-dimethyl-2,3-dihydrobenzofuran-4-yl)piperidin-1-yl)propan-2-ol] |
| 59 nM | CCS(=O)(=O)N1CCC(c2c(C)cc(Nc3ncc(Cl)c(Nc4ccccc4S(=O)(=O)C(C)C)n3)c3c2C[C@@H](C)O3)CC1 [Example 52, (R)-5-chloro-N-2-(4-(1-(ethylsulfonyl)piperidin-4-yl)-2,5-dimethyl-2,3-dihydrobenzofuran-7-yl)-N-4-(2-(isopropylsulfonyl)phenyl)pyrimidine-2,4-diamine] |
| 37.2 nM | Cc1cc(Nc2ncc(Cl)c(Nc3ccccc3S(=O)(=O)C(C)C)n2)c2c(c1C1CCN(CC(=O)N(C)C)CC1)C[C@H](C)O2 [Example 27, (S)-2-(4-(7-((5-chloro-4-((2-(isopropylsulfonyl)phenyl)amino)pyrimidin-2-yl)amino)-2,5-dimethyl-2,3-dihydrobenzofuran-4-yl)piperidin-1-yl)-N,N-dimethylacetamide] |
| 54.6 nM | Cc1cc(Nc2ncc(Cl)c(Nc3ccccc3S(=O)(=O)C(C)C)n2)c2c(c1C1CCN(C(=O)CN)CC1)C[C@H](C)O2 [Example 42, (S)-2-amino-1-(4-(7-((5-chloro-4-((2-(isopropylsulfonyl)phenyl)amino)pyrimidin-2-yl)amino)-2,5-dimethyl-2,3-dihydrobenzofuran-4-yl)piperidin-1-yl)ethanone] |
| 74.5 nM | COCCN1CCC(c2c(C)cc(Nc3ncc(Cl)c(Nc4ccccc4S(=O)(=O)C(C)C)n3)c3c2C[C@H](C)O3)CC1 [Example 31, (S)-5-chloro-N-4-(2-(isopropylsulfonyl)phenyl)-N-2-(4-(1-(2-methoxyethyl)piperidin-4-yl)-2,5-dimethyl-2,3-dihydrobenzofuran-7-yl)pyrimidine-2,4-diamine] |
| 46.6 nM | Cc1cc(Nc2ncc(Cl)c(Nc3ccccc3S(=O)(=O)C(C)C)n2)c2c(c1C1CCN(CC(=O)N(C)C)CC1)C[C@@H](C)O2 [Example 28, (R)-2-(4-(7-((5-chloro-4-((2-(isopropylsulfonyl)phenyl)amino)pyrimidin-2-yl)amino)-2,5-dimethyl-2,3-dihydrobenzofuran-4-yl)piperidin-1-yl)-N,N-dimethylacetamide] |
| 18.9 nM | Cc1cc(Nc2nc(Nc3ccccc3S(=O)(=O)C(C)C)c3c(C)n[nH]c3n2)c2c(c1C1CCN(C)CC1)CCO2 [Example 2, N-4-(2-(isopropylsulfonyl)phenyl)-3-methyl-N-6-(5-methyl-4-(1-methylpiperidin-4-yl)-2,3-dihydrobenzofuran-7-yl)-1H-pyrazolo[3,4-d]pyrimidine-4,6-diamine] |
| 61 nM | Cc1cc(Nc2nc(Nc3ccccc3S(=O)(=O)C(C)C)c3c(C)n[nH]c3n2)c2c(c1C1CCNCC1)C[C@@H](C)O2 [Example 3, (R)—N-6-(2,5-dimethyl-4-(piperidin-4-yl)-2,3-dihydrobenzofuran-7-yl)-N-4-(2-(isopropylsulfonyl)-phenyl)-3-methyl-1H-pyrazolo[3,4-d]pyrimidine-4,6-diamine] |

Reference: patent US9567342B2, “Certain protein kinase inhibitors” (SHANGHAI FOCHON PHARMACEUTICAL CO., LTD., priority 2012, dated 2017)
